We go through two molecules from patent publication US4450163A, “Process for the preparation of 1,3,7-trialkyl xanthines and di(3,7-dimethylxanthin-1-yl)methane as a medicament” (Societe d'Assistance Technique pour Produits Nestle S.A., priority 1979, dated 1984).

Series [1] relates to ear-swelling in mice in response to antigenic challenge. The series can be described thus: dermal delayed hypersensitivity test (oxazolone), inhibition of ear-swelling in mice. It counts as in vivo. The settings on record: oxazolone sensitized, 150 mg/kg b.w. i.p. at challenge, ear thickness 24 hours after challenge, compared to control animals. As for the experimental part: Immunosuppression of the compound of Example 25 was compared with cyclophosphamide, a known immunosuppressant drug, as an inhibitor of ear-swelling in mice in response to antigenic challenge in a dermal delayed hypersensitivity test at 150 mg/kg body weight.
The test was performed as is described e.g. by G. L. Asherton and W. Ptak in Immunology 15, 405 (1968). Mice were immunized by applying on the abdomen skin 0.1 ml of a 3% oxazolone solution. 7 days after sensitization, they were challenged by painting the same solution on the ear skin. Part of the mice were simultaneously administered i.p. the immunosuppressant drug of Example 25 or cyclophosphamide. The remaining animals served as controls. 24 hours after challenge, the increase in ear thickness was measured. Immunosuppressant activity was expressed in % of inhibition of ear-swelling in drug-administered mice compared to control animals.

Series [2] in a line: pharmacological studies (immunosuppressant activity, adverse effects). The series is classed as in vivo. To be noted: in words.

Structures are written as SMILES.

For `O=P1(N(CCCl)CCCl)NCCCO1` (stereo not shown) [Cyclophosphamide, reference compound], the “% inhib. of ear-swelling” value in series [1] turned out to be 73%.

For `Cn1cnc2c1c(=O)n(Cn1c(=O)c3c(ncn3C)n(C)c1=O)c(=O)n2C` [Example 25, di(3,7-dimethylxanthin-1-yl)methane], the “% inhib. of ear-swelling” value in series [1] was found to be 55%. In series [2], the immunosuppressant activity result is reported as “has an immunosuppressant activity” and the toxic adverse effect entry was “no toxic adverse effect”.
